Laboratory results reported in publication PMC9234961 (Journal of Medicinal Chemistry, 2022).
Where two headings read alike, the source gives them in different places.

Experiments:
kinases (468) [1] = molecular target: kinases (468) (Homo sapiens, UniProt O15264); settings: p38-delta (MAPK13); 1000 nM
kinases (468) [2] = molecular target: kinases (468) (Homo sapiens, UniProt O15530); settings: PDPK1; 1000 nM
kinases (468) [3] = molecular target: kinases (468) (Homo sapiens, UniProt O95382); settings: ASK2 (MAP3K6); 1000 nM
kinases (468) [4] = molecular target: kinases (468) (Homo sapiens, UniProt P00519, Y253F); settings: ABL1(Y253F)-phosphorylated; 1000 nM
kinases (468) [5] = molecular target: kinases (468) (Homo sapiens, UniProt P00533, L858R/T790M); settings: EGFR(L858R,T790M); 1000 nM
kinases (468) [6] = molecular target: kinases (468) (Homo sapiens, UniProt P04629); settings: kinase TRKA (Entrez NTRK1); compound concentration 1000 nM
kinases (468) [7] = molecular target: kinases (468) (Homo sapiens, UniProt P08581); settings: MET; 1000 nM
kinases (468) [8] = molecular target: kinases (468) (Homo sapiens, UniProt P10721, T670I/V559D); settings: KIT(V559D,T670I); 1000 nM
kinases (468) [9] = molecular target: kinases (468) (Homo sapiens, UniProt P15056); settings: BRAF; 1000 nM
kinases (468) [10] = molecular target: kinases (468) (Homo sapiens, UniProt P19525); settings: PRKR (EIF2AK2); 1000 nM
kinases (468) [11] = molecular target: kinases (468) (Homo sapiens, UniProt P23458); settings: 1000 nM
kinases (468) [12] = molecular target: kinases (468) (Homo sapiens, UniProt P29323); settings: EPHB2; 1000 nM
kinases (468) [13] = molecular target: kinases (468) (Homo sapiens, UniProt P36888, N841I); settings: FLT3(N841I); 1000 nM
kinases (468) [14] = molecular target: kinases (468) (Homo sapiens, UniProt P46734); settings: MEK3 (MAP2K3); 1000 nM
kinases (468) [15] = molecular target: kinases (468) (Homo sapiens, UniProt P49759); settings: CLK1; 1000 nM
kinases (468) [16] = molecular target: kinases (468) (Homo sapiens, UniProt P49760); settings: CLK2; 1000 nM
kinases (468) [17] = molecular target: kinases (468) (Homo sapiens, UniProt P49840); settings: GSK3A; 1000 nM
kinases (468) [18] = molecular target: kinases (468) (Homo sapiens, UniProt P51957); settings: NEK4; 1000 nM
kinases (468) [19] = molecular target: kinases (468) (Homo sapiens, UniProt P52333); settings: JAK3(JH1domain-catalytic); 1000 nM
kinases (468) [20] = molecular target: kinases (468) (Homo sapiens, UniProt P53350); settings: PLK1; 1000 nM
kinases (468) [21] = molecular target: kinases (468) (Homo sapiens, UniProt Q13177); settings: PAK2; 1000 nM
kinases (468) [22] = molecular target: kinases (468) (Homo sapiens, UniProt Q13627); settings: DYRK1A; 1000 nM
kinases (468) [23] = molecular target: kinases (468) (Homo sapiens, UniProt Q16288); settings: kinase TRKC (Entrez NTRK3); compound concentration 1000 nM
kinases (468) [24] = molecular target: kinases (468) (Homo sapiens, UniProt Q16513); settings: PKN2; 1000 nM
kinases (468) [25] = molecular target: kinases (468) (Homo sapiens, UniProt Q86V86); settings: PIM3; 1000 nM
kinases (468) [26] = molecular target: kinases (468) (Homo sapiens, UniProt Q99759); settings: MAP3K3; 1000 nM
kinases (468) [27] = molecular target: kinases (468) (Homo sapiens, UniProt Q9BRS2); settings: kinase RIOK1 (Entrez RIOK1); compound concentration 1000 nM
kinases (468) [28] = molecular target: kinases (468) (Homo sapiens, UniProt Q9NY57); settings: kinase YANK2 (Entrez STK32B); compound concentration 1000 nM
kinases (468) [29] = molecular target: kinases (468) (Homo sapiens, UniProt Q9NYY3); settings: PLK2; 1000 nM
kinases (468) [30] = molecular target: kinases (468) (Homo sapiens, UniProt Q9P2K8, S808G); settings: GCN2(Kin.Dom.2,S808G) (EIF2AK4); 1000 nM
kinases (468) [31] = molecular target: kinases (468) (Homo sapiens, UniProt Q9UKE5); settings: kinase TNIK (Entrez TNIK); compound concentration 1000 nM
kinases (468) [32] = molecular target: kinases (468) (Homo sapiens, UniProt Q9UPE1); settings: kinase SRPK3 (Entrez SRPK3); compound concentration 1000 nM
kinases (468) [33] = molecular target: kinases (468) (Homo sapiens, UniProt Q9Y2I7); settings: PIKFYVE; 1000 nM
kinases (468) [34] = molecular target: kinases (468) (Homo sapiens, UniProt Q9Y463); settings: DYRK1B; 1000 nM

Sequence of kinases (468) (Homo sapiens, UniProt P23458) (P23458 whole entry): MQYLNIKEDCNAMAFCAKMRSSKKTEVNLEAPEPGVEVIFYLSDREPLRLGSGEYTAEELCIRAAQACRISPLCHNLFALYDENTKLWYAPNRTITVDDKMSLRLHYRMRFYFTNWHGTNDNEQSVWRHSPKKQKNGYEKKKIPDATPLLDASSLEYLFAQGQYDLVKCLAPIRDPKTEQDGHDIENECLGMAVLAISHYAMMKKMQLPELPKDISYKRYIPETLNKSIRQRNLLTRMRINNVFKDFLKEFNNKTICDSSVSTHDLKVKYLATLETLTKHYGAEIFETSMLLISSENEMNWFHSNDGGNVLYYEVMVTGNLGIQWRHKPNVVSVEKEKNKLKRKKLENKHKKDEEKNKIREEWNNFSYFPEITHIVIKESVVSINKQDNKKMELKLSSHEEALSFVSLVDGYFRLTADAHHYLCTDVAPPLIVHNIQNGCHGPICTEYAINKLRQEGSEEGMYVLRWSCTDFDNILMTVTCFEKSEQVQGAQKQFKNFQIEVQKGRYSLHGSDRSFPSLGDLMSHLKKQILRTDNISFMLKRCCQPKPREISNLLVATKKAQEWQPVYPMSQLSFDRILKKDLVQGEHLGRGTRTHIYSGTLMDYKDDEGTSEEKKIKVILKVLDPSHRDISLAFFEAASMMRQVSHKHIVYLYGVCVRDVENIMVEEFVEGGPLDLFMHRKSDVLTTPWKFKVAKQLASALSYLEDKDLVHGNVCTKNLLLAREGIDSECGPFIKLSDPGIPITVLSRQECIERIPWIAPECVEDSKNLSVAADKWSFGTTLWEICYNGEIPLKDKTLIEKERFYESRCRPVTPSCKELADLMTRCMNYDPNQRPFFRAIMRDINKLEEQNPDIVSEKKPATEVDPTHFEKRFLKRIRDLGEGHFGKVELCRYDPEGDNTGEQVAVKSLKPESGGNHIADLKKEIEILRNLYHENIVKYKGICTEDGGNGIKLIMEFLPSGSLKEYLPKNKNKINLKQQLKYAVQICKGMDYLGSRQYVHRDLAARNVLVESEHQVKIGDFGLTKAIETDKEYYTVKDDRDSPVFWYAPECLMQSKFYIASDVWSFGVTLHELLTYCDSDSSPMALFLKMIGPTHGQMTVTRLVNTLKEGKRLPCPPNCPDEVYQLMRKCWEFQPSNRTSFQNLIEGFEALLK
Sequence of kinases (468) (Homo sapiens, UniProt P08581) (P08581 25-1390): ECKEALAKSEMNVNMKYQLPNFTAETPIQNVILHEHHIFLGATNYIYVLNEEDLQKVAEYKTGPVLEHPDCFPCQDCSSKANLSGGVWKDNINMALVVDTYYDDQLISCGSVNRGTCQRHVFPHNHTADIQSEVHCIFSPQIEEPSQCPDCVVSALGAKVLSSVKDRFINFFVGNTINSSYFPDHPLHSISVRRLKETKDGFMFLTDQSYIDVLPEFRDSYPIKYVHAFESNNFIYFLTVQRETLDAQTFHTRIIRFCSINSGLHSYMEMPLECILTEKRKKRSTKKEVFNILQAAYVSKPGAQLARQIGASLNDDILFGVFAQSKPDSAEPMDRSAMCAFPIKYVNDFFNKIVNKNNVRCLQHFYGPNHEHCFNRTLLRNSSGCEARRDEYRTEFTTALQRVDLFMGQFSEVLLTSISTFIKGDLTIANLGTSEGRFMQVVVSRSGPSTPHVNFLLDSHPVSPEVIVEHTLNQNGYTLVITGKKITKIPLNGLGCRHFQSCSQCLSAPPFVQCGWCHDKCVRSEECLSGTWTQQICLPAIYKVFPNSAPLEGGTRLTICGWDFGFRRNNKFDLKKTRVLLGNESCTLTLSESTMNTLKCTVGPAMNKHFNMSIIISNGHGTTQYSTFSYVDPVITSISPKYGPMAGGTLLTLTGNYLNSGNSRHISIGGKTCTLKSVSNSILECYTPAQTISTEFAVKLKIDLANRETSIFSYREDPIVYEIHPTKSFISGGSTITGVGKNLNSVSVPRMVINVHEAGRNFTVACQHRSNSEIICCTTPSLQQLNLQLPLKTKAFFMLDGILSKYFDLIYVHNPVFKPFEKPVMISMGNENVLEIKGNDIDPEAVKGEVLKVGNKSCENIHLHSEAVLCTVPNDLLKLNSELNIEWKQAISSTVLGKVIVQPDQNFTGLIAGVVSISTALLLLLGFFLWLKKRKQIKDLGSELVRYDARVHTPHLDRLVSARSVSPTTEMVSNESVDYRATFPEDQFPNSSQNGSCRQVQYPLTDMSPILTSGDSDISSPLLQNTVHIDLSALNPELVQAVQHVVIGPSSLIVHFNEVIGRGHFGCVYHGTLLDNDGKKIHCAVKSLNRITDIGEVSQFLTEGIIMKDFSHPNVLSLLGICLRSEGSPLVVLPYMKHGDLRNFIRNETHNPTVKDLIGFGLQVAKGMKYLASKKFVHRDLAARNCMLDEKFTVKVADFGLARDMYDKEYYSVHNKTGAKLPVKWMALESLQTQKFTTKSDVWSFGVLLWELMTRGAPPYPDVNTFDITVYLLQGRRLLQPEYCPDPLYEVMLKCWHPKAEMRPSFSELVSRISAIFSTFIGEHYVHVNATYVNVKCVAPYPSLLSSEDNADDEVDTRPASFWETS
Sequence of kinases (468) (Homo sapiens, UniProt Q9P2K8, S808G) (Q9P2K8 whole entry S808G): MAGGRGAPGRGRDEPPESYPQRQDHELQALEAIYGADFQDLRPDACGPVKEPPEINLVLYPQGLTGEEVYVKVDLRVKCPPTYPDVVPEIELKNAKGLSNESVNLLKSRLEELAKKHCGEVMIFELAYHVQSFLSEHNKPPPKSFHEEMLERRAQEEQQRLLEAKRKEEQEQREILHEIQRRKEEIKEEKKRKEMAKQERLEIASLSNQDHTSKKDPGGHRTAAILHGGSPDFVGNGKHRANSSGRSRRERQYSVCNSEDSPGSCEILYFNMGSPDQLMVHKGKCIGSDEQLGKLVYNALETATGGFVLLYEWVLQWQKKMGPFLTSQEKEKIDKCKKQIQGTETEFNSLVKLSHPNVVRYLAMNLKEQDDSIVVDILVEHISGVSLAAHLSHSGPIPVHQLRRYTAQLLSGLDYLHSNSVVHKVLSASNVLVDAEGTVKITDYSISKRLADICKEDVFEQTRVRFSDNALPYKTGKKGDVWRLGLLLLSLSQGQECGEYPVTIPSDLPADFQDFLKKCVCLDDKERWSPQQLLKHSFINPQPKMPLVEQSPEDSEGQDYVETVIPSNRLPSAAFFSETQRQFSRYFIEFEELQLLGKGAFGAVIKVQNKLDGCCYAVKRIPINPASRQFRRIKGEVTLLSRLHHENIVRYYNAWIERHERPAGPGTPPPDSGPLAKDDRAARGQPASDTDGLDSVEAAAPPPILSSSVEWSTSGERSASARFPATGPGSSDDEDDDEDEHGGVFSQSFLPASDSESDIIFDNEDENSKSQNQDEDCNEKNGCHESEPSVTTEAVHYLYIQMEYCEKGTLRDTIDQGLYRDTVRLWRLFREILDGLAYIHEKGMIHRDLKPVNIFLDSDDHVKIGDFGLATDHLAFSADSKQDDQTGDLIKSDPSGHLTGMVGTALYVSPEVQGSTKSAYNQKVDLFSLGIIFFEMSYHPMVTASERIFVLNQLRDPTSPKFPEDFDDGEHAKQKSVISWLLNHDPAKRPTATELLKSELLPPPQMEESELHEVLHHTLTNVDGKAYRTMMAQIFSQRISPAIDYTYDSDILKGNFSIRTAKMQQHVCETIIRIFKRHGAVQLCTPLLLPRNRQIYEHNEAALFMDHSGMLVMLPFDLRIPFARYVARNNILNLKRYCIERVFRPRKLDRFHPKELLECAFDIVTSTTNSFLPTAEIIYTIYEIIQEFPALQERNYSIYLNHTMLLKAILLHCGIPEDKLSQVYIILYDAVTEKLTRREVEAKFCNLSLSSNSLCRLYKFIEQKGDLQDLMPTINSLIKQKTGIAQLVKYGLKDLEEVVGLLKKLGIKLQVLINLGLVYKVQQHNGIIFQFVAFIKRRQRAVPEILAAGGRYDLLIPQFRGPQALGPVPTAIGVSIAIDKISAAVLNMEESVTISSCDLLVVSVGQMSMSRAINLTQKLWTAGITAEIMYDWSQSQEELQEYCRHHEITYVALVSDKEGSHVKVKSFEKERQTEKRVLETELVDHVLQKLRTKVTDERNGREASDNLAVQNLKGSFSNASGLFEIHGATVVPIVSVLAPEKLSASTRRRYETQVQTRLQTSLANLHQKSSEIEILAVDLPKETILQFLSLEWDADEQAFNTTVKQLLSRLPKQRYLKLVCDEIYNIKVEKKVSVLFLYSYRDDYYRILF
Sequence of kinases (468) (Homo sapiens, UniProt Q16513) (Q16513 whole entry): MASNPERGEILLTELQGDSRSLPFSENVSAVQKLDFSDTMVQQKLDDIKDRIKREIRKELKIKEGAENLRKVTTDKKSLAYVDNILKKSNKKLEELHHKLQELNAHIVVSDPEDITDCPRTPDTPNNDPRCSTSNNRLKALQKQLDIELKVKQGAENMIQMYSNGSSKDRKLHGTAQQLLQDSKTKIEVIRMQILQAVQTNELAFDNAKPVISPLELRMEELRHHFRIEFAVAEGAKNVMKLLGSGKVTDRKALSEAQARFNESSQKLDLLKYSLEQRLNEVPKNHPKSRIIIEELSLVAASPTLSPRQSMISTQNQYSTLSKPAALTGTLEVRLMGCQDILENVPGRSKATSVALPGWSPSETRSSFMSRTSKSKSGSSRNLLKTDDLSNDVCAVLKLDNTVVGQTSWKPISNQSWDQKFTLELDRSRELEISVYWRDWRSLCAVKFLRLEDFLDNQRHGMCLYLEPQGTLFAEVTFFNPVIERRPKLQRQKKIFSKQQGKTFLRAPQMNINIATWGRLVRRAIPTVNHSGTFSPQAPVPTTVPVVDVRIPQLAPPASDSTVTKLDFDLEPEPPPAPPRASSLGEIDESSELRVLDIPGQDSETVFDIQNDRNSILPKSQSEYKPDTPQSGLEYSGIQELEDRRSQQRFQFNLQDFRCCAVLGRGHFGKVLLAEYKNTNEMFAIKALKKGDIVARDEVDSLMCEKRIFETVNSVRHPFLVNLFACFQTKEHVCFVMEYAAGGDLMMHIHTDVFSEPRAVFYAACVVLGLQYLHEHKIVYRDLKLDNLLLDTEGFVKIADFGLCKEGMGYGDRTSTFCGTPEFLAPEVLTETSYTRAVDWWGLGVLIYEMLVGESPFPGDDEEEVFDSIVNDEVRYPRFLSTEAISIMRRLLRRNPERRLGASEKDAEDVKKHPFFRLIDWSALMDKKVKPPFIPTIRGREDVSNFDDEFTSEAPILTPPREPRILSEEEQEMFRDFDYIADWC

## C[C@H]1C[C@@H](O)CN(c2ncc(Cl)c(Nc3ccc4c(c3)c3c(c(=O)n4C)OCC(F)(F)[C@H](C4CC4)N3)n2)C1 [CCT373566_9A]
Kinases (468) [1]
  Percent Control: 94%
Kinases (468) [2]
  Percent Control: 100%
Kinases (468) [3]
  Percent Control: 98%
Kinases (468) [4]
  Percent Control: 91%
Kinases (468) [5]
  Percent Control: 81%
Kinases (468) [6]
  Percent Control: 100%
Kinases (468) [7]
  Percent Control: 100%
Kinases (468) [8]
  Percent Control: 98%
Kinases (468) [9]
  Percent Control: 92%
Kinases (468) [10]
  Percent Control: 95%
Kinases (468) [11]; JAK1(JH1domain-catalytic)
  Percent Control: 100%
Kinases (468) [11]; JAK1(JH2domain-pseudokinase)
  Percent Control: 90%
Kinases (468) [12]
  Percent Control: 96%
Kinases (468) [13]
  Percent Control: 94%
Kinases (468) [14]
  Percent Control: 100%
Kinases (468) [15]
  Percent Control: 94%
Kinases (468) [16]
  Percent Control: 68%
Kinases (468) [17]
  Percent Control: 95%
Kinases (468) [18]
  Percent Control: 91%
Kinases (468) [19]
  Percent Control: 78%
Kinases (468) [20]
  Percent Control: 83%
Kinases (468) [21]
  Percent Control: 100%
Kinases (468) [22]
  Percent Control: 95%
Kinases (468) [23]
  Percent Control: 100%
Kinases (468) [24]
  Percent Control: 100%
Kinases (468) [25]
  Percent Control: 100%
Kinases (468) [26]
  Percent Control: 100%
Kinases (468) [27]
  Percent Control: 78%
Kinases (468) [28]
  Percent Control: 90%
Kinases (468) [29]
  Percent Control: 87%
Kinases (468) [30]
  Percent Control: 100%
Kinases (468) [31]
  Percent Control: 94%
Kinases (468) [32]
  Percent Control: 90%
Kinases (468) [33]
  Percent Control: 83%
Kinases (468) [34]
  Percent Control: 87%
